Reference: US20220143010A1, “CANCER TREATMENT COMPRISING NALTREXONE AND A CANNABINOID” (LDN Pharma Limited, priority 2019, published 2022)
Entries after “also recorded” stand apart in the source; their conditions may differ. Read-outs that look alike come from different tables or passages of the source.

Tests used:
Format in all cases: cell-based
[1] = test system: CB2; assay: Western blot of CB2 levels in MCF7 cultures after two days of treatment; conditions: for levels of the CB2 receptor after treatment: cancer cells (MCF7), summary statement
Procedure: Levels of Bcl2-associated death promoter (BAD), p21 protein, the opioid receptors kappa 1 (OPRK1) and mu 1 (OPRM1), and the cannabinoid receptors CBR1 (CB1) and CBR2 (CB2) are visualised by Western blot (left) against GAPDH as a loading control, and quantified via density analysis relative to GAPDH (right).
One illustrative and non-limiting experiment was carried out on cultures of MCF7 (breast cancer) cells. In brief, either LDN at 10 nM or 6BN at 1 μM or 10 μM was administered in vitro to a culture for two days, after which the expression levels of BAD, p21, opioid receptors kappa and mu, CB1, CB2, and GAPDH (as a loading control) were analysed via Western blot and subsequent quantification via density measurement of the bands.
In full, MCF7 cells were seeded into 6-well plates at a density of 1×10^5/well and left to adhere over-night. Naltrexone (10 nM) or 6-β-naltrexol (1 μM or 10 μM) were added to the cells before harvesting cells for western blot analysis. Primary probing was performed with specific antibodies generated against BAD, p21, OPRK1, […], CBR-1 and CBR-2. […] Anti-GAPDH was used as a loading control. All antibodies were used at a dilution of 1:1000, followed by the appropriate HRP conjugated secondary antibodies also at a dilution of 1:1000. Bands were visualised by the SuperSignal chemiluminescent detection system, and densitometry of band intensity was determined using Adobe Photoshop CS3, v10.0, and normalised to the loading control.

[2] = test system: MCF7 (breast cancer) cells; assay: Two-stage sequential treatment, cell number and viability (trypan blue); conditions: LDN 10 nM or 6BN 10 μM for 48 h before cannabidiol 10 μM for 48 h, versus reversed sequence
Procedure: Each treatment lasted four days and consisted of two days of treatment with the first agent (UN=control, LDN=Low Dose Naltrexone at 10 nM CBD=Cannabidiol, 6BN=6-β-naltrexol) before the second-named agent was introduced for a further two days.
Another illustrative and non-limiting experiment was carried out on cultures of MCF7 (breast cancer) cells. In brief, the cultures were treated with LDN or 6BN for two days, after which a cannabinoid was administered for a further two days. Cell number and viability were assessed on day four. The sequence of the administration for each therapeutic agent was reversed and the experiment repeated.
In full, MCF7 cells were seeded into 6-well plates at a density of 1.5×10^4/well and left to adhere. Cells were then cultured with naltrexone (10 nM), 6-β-naltrexol (10 μM) or cannabidiol (10 μM). Drug-containing media was removed after 48 h, and cells were rinsed gently with drug-free medium. Fresh culture medium was then added to the cells supplemented with either naltrexone (10 nM), 6-β-naltrexol (10 μM) or cannabidiol (10 μM), as indicated in the graph. Cell number and viability were assessed a further 48 h later, with percentages of live and dead cells being discriminated by trypan blue dye exclusion. Data were then consolidated to compare the effect of sequence on overall effect.

[3] = test system: A549 (lung cancer) cells; assay: Two-block schedule LDN+CBD and chemotherapeutic agent, cell number and viability at 96 h
Procedure: • A549 (lung cancer) and HCT116 (colon cancer) cells were cultured with drugs according to the schedules in Table 1. The schedules lasted a total of 96 h. • Treatments were separated into two blocks, each lasting 48 h. Due to the complications of cell testing using three different drugs in three different treatment phases, the CBD and LDN were administered together in one treatment phase and the chemotherapeutic agent in the other treatment phase. • There was a washout period between the two blocks, where exhausted media containing drugs were removed, cells then washed, before fresh media was added that contained the next block of treatment. • The chemotherapeutic agents were gemcitabine (GEM) or oxaliplatin (OXP), and used at an ˜IC20 concentration (1 uM). Low dose naltrexone (LDN) was used at 10 nM and cannabinoid (CBD) was used at 1 uM. “0” means nothing was administered and is used as a control. • Cell number and percentage cell viability were assessed at 96 h. Data were then consolidated to compare the effect of sequence on overall effect.

SMILES | rise of CB2 compared among the three treatments ([1]; MCF7 cells, 10 μM 6BN, two days) | levels of the CB2 receptor after treatment [1] | effect on inhibiting the proliferation of the cancer, by sequence [2] | IC20 ([3]; Homo sapiens, A549, read-out: IC20 concentration) | IC20 ([3]; concentration used in Example 3, A549 and HCT116, cell line not specified, read-out: IC20 concentration)
Oc1ccc2c3c1OC1C(O)CC[C@@]4(O)[C@@H](C2)N(CC2CC2)CC[C@]314 (stereo partly shown) [6BN, N-cyclopropylmethyl-7,8-dihydro-14-hydroxynorisomorphine] | highest | significant increase | greater effect on inhibiting the proliferation |  | 
Nc1ccn([C@@H]2O[C@H](CO)[C@@H](O)C2(F)F)c(=O)n1 [GEM, gemcitabine] |  |  |  | ~1000 nM | 
O=C1CC[C@@]2(O)[C@H]3Cc4ccc(O)c5c4[C@@]2(CCN3CC2CC2)[C@H]1O5 [LDN, 17-cyclopropylmethyl-4.5α-epoxy-3,14-dihydroxymorphinan-6-one] |  | significant increase; also recorded: increased significantly | greater effect on inhibiting the proliferation |  | 
O=C1[O][Pt]2([NH][C@@H]3CCCC[C@H]3[NH]2)[O]C1=O [OXP, oxaliplatin] |  |  |  |  | ~1000 nM
